Reference: patent EP1022029A1, “NOOTROPIC AGENT” (priority 1997, dated 1999)

Columns and labels:
[1] = system: calcium-dependent chloride currents; experiment: Calcium-dependent chloride currents in Xenopus oocytes; type: cell-based
Description: In atropine-free frog Ringer's solution, acetylcholine (Ach) (100 µM) was administered to an oocyte that had not expressed ACh receptors. The holding voltage was -30 mV.
In Xenopus oocyte expression systems, ACh-evoked currents are known to be composed of ACh-gated channel currents and calcium-dependent chloride currents (R. Miledi et al., J. Physiol. 357, 173, 1984). Nefiracetam, however, had no effect on calcium-dependent chloride currents induced by stimulation from the endogenous muscarinic ACh receptors (FIG. 2).

[2] = system: excitatory postsynaptic potential in the brain; experiment: Excitatory postsynaptic potential (PS) in the brain in vivo, hippocampal granular cell layer; design: species or system mice
Description: A group of mice were provided. The head of each mouse was fixed, and electrodes were inserted into the granular cell layer of the hippocampal region. PS was recorded. Nefiracetam was intramuscularly injected (7.5 mg/kg). […] This effect was confirmed even after 960 minutes. Thus, the effect obtained in vitro was also confirmed in an in vivo experiment […].

[3] = system: glutamate release from hippocampal slices; type: cell-based, guinea pig
[4] = system: postsynaptic potential of a slice of the rat hippocampus; experiment: Paired-pulse facilitation of the postsynaptic potential in hippocampal slices; type: cell-based; settings: nefiracetam-administered slices; interpulse intervals 50 to 150 msec
Description: Paired pulses were applied to slices at varying interpulse intervals, between 50 and 150 msec before and 10 minute after the administration of nefiracetam. […] Briefly, reaction induced by the first pulse application was potentiated to a maximum of 120% by the next pulse application. However, the pulses were consistently lower than those obtained with slices that had not been administered nefiracetam (Table 6); therefore, nefiracetam is considered to maximally enhance release of glutamate serving as an excitatory neurotransmitter.

[5] = system: field excitatory postsynaptic potentials (fEPSP); experiment: Field excitatory postsynaptic potentials (fEPSP slope) in rat hippocampal slices, CA1; type: cell-based; settings: nefiracetam 1 µM applied for 10 minutes
Description: Long-lasting facilitation of hippocampal synaptic transmission induced by nefiracetam was investigated. The field excitatory postsynaptic potentials (fEPSP) were recorded in the pyramidal cell layer of the CA1 region by electrical stimulation to the Schaeffer collateral pathway in rat hippocampla slices. Nefiracetam (1 µM) was applied to the hippocampla slices for 10 minutes. After nefiracetam application, fEPSPs were gradually augmented. This effect was observed until 240 minutes had passed since the experiment ended (Table 18-2).
Next, investigation was made regarding whether the above effect exerted by the present drug differs from the onset mechanism for long-term potentiation (LTP) action exerted when tetanic stimulation was used. The following three groups were compared: (group 1) tetanic stimulation alone; (group 2) nefiracetam + tetanic stimulation; (group 3) tetanic stimulation + nefiracetam. As a result, the fEPSPs that had been potentiated by nefiracetam was not potentiated any longer even when subsequent tetanic stimulation was applied. Likewise, the fEPSPs that had been potentiated by tetanic stimulation was not potentiated any longer even after subsequent application of nefiracetam. The amplitudes of potentiation of these two types of fEPSP were the same as the amplitude of tetanic stimulation. […]

[6] = biological target: T1, nACh receptors (α, β, γ, δ) of Torpedo (Tetronarce californica, UniProt P02710+P02712+P02714+P02718); experiment: ACh-evoked currents in normal nACh receptors expressed in Xenopus oocytes (two-electrode voltage clamp); type: cell-based
T1 construct: expressed in transfected cells; host or cells: Xenopus oocytes
Description: Cell membrane currents were recorded by use of two-electrode voltage clamp techniques (T. Nishizaki et al., Ikeuchi, Brain Res. 687, 214, 1995). ACh (100 µM) was administered to a single oocyte expressing normal ACh receptors at 10-min intervals before and after 10-min treatment of the oocyte with nefiracetam. The holding voltage was -30 mV. In accordance with a conventional method, wild-type acetylcholine (nACh) receptors were expressed in Xenopus oocytes (K. Sumikawa et al., Mol. Brain Res. 5, 183, 1989), and by the application of ACh (100 µM), inward membrane currents were evoked (Table 13). Currents were recorded at 10-min intervals. During the recording period, spontaneous attenuation of the currents was within 5% (data not shown). […] After the drug was washed out, the amplitude gradually recovered (Table 13). The reductions in current were 70% (n=7) with 0.01 µM and 62% with 0.1 µM nefiracetam.
ACh (100 µM) was applied to each of an oocyte expressing normal ACh receptors and an oocyte expressing mutant ACh receptors (mγΔPKA/Ser353, 354m δΔPKA/Ser361,362) lacking PKA phosphorylation sites, before and after treatment with nefiracetam (0.01 µM). The oocytes expressing normal ACh receptors were treated with H-89 (1 µM) from 15 min before recording, or with pertussis toxin (0.1 µg/ml) for 24h prior to experiments. The currents illustrated in Table 16 were recorded before and 30 min after treatment with nefiracetam. The holding voltage was - 30 mV. In Table 16, each point represents the average obtained from seven oocytes.
ACh (100 µM) was applied to each of an oocyte expressing normal ACh receptors and an oocyte expressing mutant ACh receptors (mγΔPKA/Ser353,354m δΔPKA/Ser361,362) lacking PKA phosphorylation sites, in the presence and absence of GF109203X (100 nM) or in calcium-free extracellular solution.

T1 sequence (P02718 22-522): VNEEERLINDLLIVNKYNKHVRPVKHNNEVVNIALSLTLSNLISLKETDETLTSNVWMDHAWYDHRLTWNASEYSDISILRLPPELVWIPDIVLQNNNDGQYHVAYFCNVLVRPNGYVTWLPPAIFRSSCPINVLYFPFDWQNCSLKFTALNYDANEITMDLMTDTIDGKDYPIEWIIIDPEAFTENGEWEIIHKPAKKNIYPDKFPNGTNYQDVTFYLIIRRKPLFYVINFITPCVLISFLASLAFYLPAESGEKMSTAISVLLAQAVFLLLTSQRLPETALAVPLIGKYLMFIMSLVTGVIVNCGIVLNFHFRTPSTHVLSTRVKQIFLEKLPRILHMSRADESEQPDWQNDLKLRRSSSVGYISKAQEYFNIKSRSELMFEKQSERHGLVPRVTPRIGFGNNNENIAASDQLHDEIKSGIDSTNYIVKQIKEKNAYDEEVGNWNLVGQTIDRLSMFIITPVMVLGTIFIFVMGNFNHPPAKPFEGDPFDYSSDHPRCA
T1 sequence (P02712 25-493): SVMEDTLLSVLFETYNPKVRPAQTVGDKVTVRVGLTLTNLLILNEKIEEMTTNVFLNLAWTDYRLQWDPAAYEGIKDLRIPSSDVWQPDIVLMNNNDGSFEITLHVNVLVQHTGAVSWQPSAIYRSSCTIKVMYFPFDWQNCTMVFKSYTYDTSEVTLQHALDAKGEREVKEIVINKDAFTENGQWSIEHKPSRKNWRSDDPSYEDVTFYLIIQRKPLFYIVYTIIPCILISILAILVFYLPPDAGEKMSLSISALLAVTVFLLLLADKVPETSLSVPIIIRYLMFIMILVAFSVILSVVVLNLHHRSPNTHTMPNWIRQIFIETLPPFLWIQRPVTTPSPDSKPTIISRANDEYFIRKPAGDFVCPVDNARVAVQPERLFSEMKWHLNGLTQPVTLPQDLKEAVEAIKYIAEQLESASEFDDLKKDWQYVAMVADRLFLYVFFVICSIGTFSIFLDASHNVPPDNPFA
T1 sequence (P02710 25-461): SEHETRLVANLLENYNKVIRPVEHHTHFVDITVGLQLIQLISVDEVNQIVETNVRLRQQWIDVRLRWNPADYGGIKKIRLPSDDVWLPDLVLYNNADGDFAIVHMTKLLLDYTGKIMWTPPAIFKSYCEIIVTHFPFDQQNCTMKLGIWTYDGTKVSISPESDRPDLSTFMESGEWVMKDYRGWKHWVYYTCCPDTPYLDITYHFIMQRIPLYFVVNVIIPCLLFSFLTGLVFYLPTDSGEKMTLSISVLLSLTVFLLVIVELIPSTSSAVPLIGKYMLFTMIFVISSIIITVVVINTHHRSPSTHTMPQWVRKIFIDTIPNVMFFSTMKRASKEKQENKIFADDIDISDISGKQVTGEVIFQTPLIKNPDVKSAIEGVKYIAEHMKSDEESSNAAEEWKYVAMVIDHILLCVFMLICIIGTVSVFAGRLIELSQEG
T1 sequence (P02714 18-506): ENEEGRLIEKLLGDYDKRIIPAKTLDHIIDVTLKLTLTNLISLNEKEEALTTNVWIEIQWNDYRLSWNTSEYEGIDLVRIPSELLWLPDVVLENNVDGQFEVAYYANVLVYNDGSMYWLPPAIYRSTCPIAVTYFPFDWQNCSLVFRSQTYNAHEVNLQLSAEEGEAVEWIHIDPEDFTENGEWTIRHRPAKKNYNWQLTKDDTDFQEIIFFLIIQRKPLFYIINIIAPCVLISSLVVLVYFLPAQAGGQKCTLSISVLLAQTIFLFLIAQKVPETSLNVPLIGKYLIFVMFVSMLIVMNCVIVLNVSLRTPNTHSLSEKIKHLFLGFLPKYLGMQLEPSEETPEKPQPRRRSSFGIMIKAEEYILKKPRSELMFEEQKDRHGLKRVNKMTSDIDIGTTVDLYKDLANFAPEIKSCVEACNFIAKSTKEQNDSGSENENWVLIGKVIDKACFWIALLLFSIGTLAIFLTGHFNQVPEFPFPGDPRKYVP

Cc1cccc(C)c1NC(=O)CN1CCCC1=O [nefiracetam, 2-oxo-1-pyrrolidinylacetic acid 2,6-dimethylanilide]
effect on calcium-dependent chloride currents induced by stimulation from the endogenous muscarinic ACh receptors (FIG. 2) ([1]; oocyte not expressing ACh receptors, atropine-free Ringer, ACh 100 µM): had no effect
effect on chloride ion (Cl^-) currents evoked by Ca^2+ influx through the nACh receptor channels ([1]; oocytes, data not shown): had no effect
time after which potentiation of the excitatory postsynaptic potential was still confirmed ([2]; 7.5 mg/kg intramuscularly, mice): ≥ 960 min
effect on excitatory postsynaptic potential (PS) in vivo ([2]; administered to animals): significant potentiation
effect on glutamate release ([3]; 1 µM, depolarization by electrical stimulation): significantly increased
Amount of released glutamate ([3]; St (ES+) electrical stimulation, nefiracetam 1 µM, tetrodotoxin 0.5 µM, α-bungarotoxin 50 nM, mecamylamine 3 µM): 3.23 ± 0.5 (a) nmol/mg protein/10min.
paired-pulse facilitation: reaction to first pulse potentiated by the next pulse [4]: ≤ 120%
time until which augmentation of fEPSPs was observed [5]: ≥ 240 min
inhibition at 0.01 µM ([6]; 0.01 µM nefiracetam for 10 min, n=7, read-out: reduction in ACh-evoked current): 70%
inhibition at 0.1 µM ([6]; 0.1 µM nefiracetam for 10 min, read-out: reduction in ACh-evoked current): 62%
activity at 1 µM ([6]; 1.5 h, 1 µM, 10-min treatment, 90 min after washing-out, n=7, read-out: ACh-evoked currents enhanced, reaching): 243%
activity at 10 µM ([6]; 1.5 h, 10 µM, 10-min treatment, 90 min after washing-out, n=7, read-out: ACh-evoked currents enhanced, reaching): 255%
ACh-evoked currents reduced to ([6]; nefiracetam in the presence of GF109203X, 30 minutes after administration, n=7): 60%
